According to EP4759814A1, “TRICYCLIC COMPOUND AND USE THEREOF AS MAT2A INHIBITOR” (SK Biopharmaceuticals Co., Ltd., priority 2023, dated 2025):

What was measured:
[1] = system: HCT116 (MTAP WT) cell line; experiment: Cell proliferation inhibition in wild-type control cells, WST-1 assay; format: cell-based; conditions: 120 hours of drug treatment, maximum concentration 10 µM, read-out: HCT116 WT (IC50, cell proliferation inhibited by 50%)
Experimental: (§1) The HCT116 (MTAP del) cell line, which is a colorectal cancer cell line with deletion of MTAP gene, was treated with a compound according to an embodiment of the present application as a MAT2A inhibitor, and after culturing for 120 hours, the change in the number of cells was measured with a WST-1 assay reagent. The WST-1 assay is an assay that measures the number of cells by measuring the generation of a chromogenic substance called formazan from tetrazolium salts by intracellular mitochondrial dehydrogenase. In addition, as a control group, a wild-type colorectal cancer HCT116 (MTAP WT) cell line containing the MTAP gene was used to perform the experiment in the same manner as the experimental group.
(§2) Cell lines and reagents: HCT116 (MTAP WT (catalog number HD PAR-034), MTAP del (catalog number HD R02-033)) cell lines were purchased from Horizon Discovery (USA), and RPMI1640 medium (catalog number 22400-093), FBS (Fetal Bovine serum, catalog number 16000044), and Penicillin/Streptomycin (catalog number 15140-122) were purchased from GIBCO (USA). WST-1 (catalog number EZ-BULK150) was purchased from Dogen (Korea).
(§3) Experimental procedure: HCT116 (MTAP WT, MTAP del) cell lines were dispensed into a 96-well plate at a concentration of 1,000 cells/well in RPMI1640 culture medium containing 10% FBS and 1% Penicillin/Streptomycin, and allowed to attach for 24 hours. When the cells were attached to the plate, the drug was diluted 4-fold from a maximum concentration of 10 µM and treated on the cells. After 120 hours of drug treatment, 20 µL of WST-1 solution was treated for 2 hours, and absorbance at 450 nm was measured using SpectraMax M4 (Molecular Devices). Data analysis was calculated by taking the DMSO control group value as 100%. For the IC50 value, the concentration at which cell proliferation is inhibited by 50% was calculated through interpolation using a 4-parameter fit of the dose-response curve using the GraphPad Prism 8.4.3 program. The cancer cell proliferation inhibitory ability and selectivity in MTAP-deficient cancer cells of the compounds according to an embodiment of the present application are described in Table 3 (+++: 1 to 100 nM, ++: more than 100 to 1,000 nM, +: more than 1 to 10 µM, -: more than 10 µM).

[2] = system: HCT116 (MTAP del) cell line; experiment: Cell proliferation inhibition in MTAP-deficient cancer cells, WST-1 assay; format: cell-based; conditions: Homo sapiens, HCT-116, 120 h, 120 hours of drug treatment, maximum concentration 10 µM, read-out: HCT116 MTAP^-/- (IC50, cell proliferation inhibited by 50%)
Experimental: as §1, §2, §3

Structure (SMILES) | IC50 [1] | IC50 [2]
Cc1ncccc1-n1c(=O)c2nccn2c2cc(Cl)c(Br)cc21 (atropisomer, axis not shown; (Sa)) [Example 81, (Sa)-7-bromo-8-chloro-5-(2-methylpyridin-3-yl)imidazo[1,2-a]quinoxalin-4(5H)-one] | 1 to 10 µM | 1 to 100 nM
Cc1cc2c(cc1C(F)(F)F)n(-c1cccnc1C)c(=O)c1nccn12 (atropisomer, axis not shown; (Sa)) [Example 95, (Sa)-8-methyl-5-(2-methylpyridin-3-yl)-7-(trifluoromethyl)imidazo[1,2-a]quinoxalin-4(5H)-one] | > 10 µM | 1 to 100 nM
Cc1ncccc1-n1c(=O)c2nccn2c2cc(Cl)c(C(F)(F)F)cc21 (atropisomer, axis not shown; (Sa)) [Example 98, (Sa)-8-chloro-5-(2-methylpyridin-3-yl)-7-(trifluoromethyl)imidazo[1,2-a]quinoxalin4(5H)-one] | > 10 µM | 1 to 100 nM
CCc1ncccc1-n1c(=O)c2nccn2c2cc(Cl)c(C(F)(F)F)cc21 (atropisomer, axis not shown; (Sa)) [Example 112, (Sa)-8-chloro-5-(2-ethylpyridin-3-yl)-7-(trifluoromethyl)imidazo[1,2-a]quinoxalin4(5H)-one] |  | > 10000 nM
